Assay results reported in BindingDB's records for aid1799744 (Csar, 2012).
Where “and” joins values, the source holds several entries; their conditions need not be identical. Identical values can stand only once.

Target: Mitogen-activated protein kinase 1 (Homo sapiens, UniProt P28482)
Experiment: Assay 1

Sequence of Mitogen-activated protein kinase 1 (P28482 whole entry): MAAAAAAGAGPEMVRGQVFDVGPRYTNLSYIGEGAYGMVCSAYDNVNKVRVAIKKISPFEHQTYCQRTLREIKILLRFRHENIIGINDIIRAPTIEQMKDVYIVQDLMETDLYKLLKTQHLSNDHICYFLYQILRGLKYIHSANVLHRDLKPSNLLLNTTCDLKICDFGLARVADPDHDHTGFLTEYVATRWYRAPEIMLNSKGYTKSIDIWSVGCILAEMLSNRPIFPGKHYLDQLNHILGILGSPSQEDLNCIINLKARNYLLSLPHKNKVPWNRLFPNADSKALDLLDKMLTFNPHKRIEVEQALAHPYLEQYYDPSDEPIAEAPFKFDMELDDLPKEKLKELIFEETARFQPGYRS

SMILES | Ki
CCNc1ncc(C)c(-c2c[nH]c(C(=O)NCc3ccccc3F)c2)n1 [erk000473] | 794 nM
CCNc1ncc(C)c(-c2c[nH]c(C(=O)NCc3cccc(F)c3)c2)n1 [erk000474] | 83 nM
CCNc1ncc(C)c(-c2c[nH]c(C(=O)NCc3ccccc3OC)c2)n1 [erk000475] | 468 nM
CCNc1ncc(C)c(-c2c[nH]c(C(=O)NCc3cccc(OC)c3)c2)n1 [erk000476] | 52 nM
CCNc1ncc(C)c(-c2c[nH]c(C(=O)N[C@@H](CO)c3cc(F)cc(C(F)(F)F)c3)c2)n1 [erk000478] | 120 nM
CCNc1ncc(C)c(-c2c[nH]c(C(=O)N[C@@H](CO)c3cccc(F)c3)c2)n1 [erk000479] | 9 nM
CCNc1ncc(C)c(-c2c[nH]c(C(=O)NCc3ccccc3O)c2)n1 [erk000480] | 1510 nM
CCNc1ncc(C)c(-c2c[nH]c(C(=O)NCc3cccc(O)c3)c2)n1 [erk000484] | 68 nM
CCNc1ncc(C)c(-c2c[nH]c(C(=O)NCc3ccc(O)c(O)c3)c2)n1 [erk000485] | 427 nM
CCNc1ncc(C)c(-c2c[nH]c(C(=O)N[C@@H](CO)c3ccccc3F)c2)n1 [erk000486] | 229 nM
Cc1cnc(N[C@@H](CO)CC2CC2)nc1-c1c[nH]c(C(=O)N[C@H](CO)c2ccccc2)c1 [erk000487] | 4 nM
Cc1cnc(N[C@H](CO)C(C)C)nc1-c1c[nH]c(C(=O)N[C@H](CO)c2ccccc2)c1 [erk000488] | 14 nM
CCNc1ncc(C)c(-c2c[nH]c(C(=O)N[C@@H](C(C)=O)c3ccccc3)c2)n1 [erk000489] | 1910 nM
CCNc1ncc(C)c(-c2c[nH]c(C(=O)N[C@H](CO)c3cccc(C(F)(F)F)c3)c2)n1 [erk000491] | 13 nM
Cc1cnc(NC2CC2)nc1-c1c[nH]c(C(=O)N[C@H](CO)c2cccc(C(F)(F)F)c2)c1 [erk000492] | 2 nM
CONc1ncc(C)c(-c2c[nH]c(C(=O)N[C@H](CO)c3ccccc3)c2)n1 [erk000493] | 29 nM
Cc1cnc(NOC(C)C)nc1-c1c[nH]c(C(=O)N[C@H](CO)c2ccccc2)c1 [erk000494] | 10 nM
CC(=O)Nc1ncc(C)c(-c2c[nH]c(C(=O)N[C@H](CO)c3ccccc3)c2)n1 [erk000496] | 32 nM
Cc1cnc(NC[C@H]2CCCO2)nc1-c1c[nH]c(C(=O)N[C@H](CO)c2ccccc2)c1 [erk000497] | 14 nM

SMILES | Ki
CCOC(=O)NNc1ncc(C)c(-c2c[nH]c(C(=O)N[C@H](CO)c3ccccc3)c2)n1 [erk000498] | 646 nM
CN(C)c1sc(C#N)c2c1-c1nc(Nc3cccc(O)c3)ncc1CC2 [erk000499] | 40 nM
Cc1cnc(NOCC2CC2)nc1-c1c[nH]c(C(=O)N[C@H](CO)c2ccccc2)c1 [erk000500] | 26 nM
Cc1cnc(-c2ccccc2)nc1-c1c[nH]c(C(=O)N[C@H](CO)c2ccccc2)c1 [erk000501] | 20 nM
Cc1ncc(C)c(-c2c[nH]c(C(=O)N[C@H](CO)c3ccccc3)c2)n1 [erk000502] | 257 nM
Cc1cnc(NC#N)nc1-c1c[nH]c(C(=O)N[C@H](CO)c2ccccc2)c1 [erk000503] | 25 nM
Cc1cnc(NOCCO)nc1-c1c[nH]c(C(=O)N[C@H](CO)c2ccccc2)c1 [erk000504] | 18 nM
Cc1cnc(NN(C)C)nc1-c1c[nH]c(C(=O)N[C@H](CO)c2ccccc2)c1 [erk000505] | 7 nM
CC[C@@H](CO)Nc1ncc(C)c(-c2c[nH]c(C(=O)N[C@H](CO)c3cccc(Cl)c3)c2)n1 [erk000507] | 2 nM
c1ccc2c(Nc3cc(C4CC4)n[nH]3)nc(Nc3ccc4nc[nH]c4c3)nc2c1 [erk000508] | 78 nM
Cc1cnc(NC(CO)CO)nc1-c1c[nH]c(C(=O)N[C@H](CO)c2ccccc2)c1 [erk000509] | 5 nM
Cc1cnc(N[C@@H]2C[C@@H]2C)nc1-c1c[nH]c(C(=O)N[C@H](CO)c2ccccc2)c1 [erk000510] | 0.5 nM
Cc1cnc(NC(C)(CO)CO)nc1-c1c[nH]c(C(=O)N[C@H](CO)c2ccccc2)c1 [erk000512] | 6 nM
Cc1cnc(NC2(CO)CCCC2)nc1-c1c[nH]c(C(=O)N[C@H](CO)c2ccccc2)c1 [erk000513] | 51 nM
Cc1cnc(N[C@H](CO)CC(C)C)nc1-c1c[nH]c(C(=O)N[C@H](CO)c2ccccc2)c1 [erk000514] | 9 nM
Cc1cnc(N[C@H]2C[C@H]2CO)nc1-c1c[nH]c(C(=O)N[C@H](CO)c2ccccc2)c1 [erk000515] | 21 nM
Cc1cnc(NC2CCCC2)nc1-c1c[nH]c(C(=O)N[C@H](CO)c2ccccc2)c1 [erk000516] | 2 nM
Cc1cnc(Nc2ccccn2)nc1-c1c[nH]c(C(=O)N[C@H](CO)c2ccccc2)c1 [erk000517] | 0.4 nM
Cc1ccnc(Nc2ncc(C)c(-c3c[nH]c(C(=O)N[C@H](CO)c4ccccc4)c3)n2)c1 [erk000518] | 4 nM

SMILES | Ki
Cc1cnc(NCCN2CCOCC2)nc1-c1c[nH]c(C(=O)N[C@H](CO)c2ccccc2)c1 [erk000519] | 120 nM
Cc1cnc(NCC[C@@H]2CCCN2C)nc1-c1c[nH]c(C(=O)N[C@H](CO)c2ccccc2)c1 [erk000520] | 537 nM
Cc1cccnc1Nc1ncc(C)c(-c2c[nH]c(C(=O)N[C@H](CO)c3ccccc3)c2)n1 [erk000521] | 91 nM
Cc1cccc([C@@H](CO)NC(=O)c2cc(-c3nc(NC(C)C)ncc3C)c[nH]2)c1 [erk000522] | 1 nM
Cc1cccc([C@@H](CO)NC(=O)c2cc(-c3nc(NCC(C)C)ncc3C)c[nH]2)c1 [erk000523] | 2 nM
Cc1cnc(NCC(C)C)nc1-c1c[nH]c(C(=O)N[C@H](CO)c2cccc(Cl)c2)c1 [erk000525] | 3 nM
Cc1cnc(Nc2cccc(C)c2C)nc1-c1c[nH]c(C(=O)N[C@H](CO)c2cccc(Cl)c2)c1 [erk000526] | 1 nM
Cc1cnc(Nc2cccc(O)c2C)nc1-c1c[nH]c(C(=O)N[C@H](CO)c2ccccc2)c1 [erk000527] | 3 nM
CCN1CCC[C@H]1CNc1ncc(C)c(-c2c[nH]c(C(=O)N[C@H](CO)c3ccccc3)c2)n1 [erk000530] | 110 nM and 60 nM
COc1cccc(Nc2ncc(C)c(-c3c[nH]c(C(=O)N[C@H](CO)c4ccccc4)c3)n2)c1C [erk000531] | 79 nM
Cc1cccc([C@@H](CO)NC(=O)c2cc(-c3nc(Nc4ccccc4N(C)C)ncc3C)c[nH]2)c1 [erk000532] | 50 nM
Cc1cnc(Nc2ccccc2C#N)nc1-c1c[nH]c(C(=O)N[C@H](CO)c2ccccc2)c1 [erk000533] | 2000 nM
Cc1cnc(NC2CCCCC2)nc1-c1c[nH]c(C(=O)N[C@H](CO)c2ccccc2)c1 [erk000534] | 2 nM
COc1cccc(Nc2ncc(C)c(-c3c[nH]c(C(=O)N[C@H](CO)c4cccc(C)c4)c3)n2)c1C [erk000535] | 200 nM
Cc1cnc(NC(C)C)nc1-c1c[nH]c(C(=O)N[C@H](CO)c2cccc(F)c2)c1 [erk000536] | 15 nM
Cc1cnc(Nc2cccc(F)c2C)nc1-c1c[nH]c(C(=O)N[C@H](CO)c2ccccc2)c1 [erk000538] | 2 nM
Cc1cnc(Nc2cccc(C)c2C)nc1-c1c[nH]c(C(=O)N[C@H](CO)c2cccc(F)c2)c1 [erk000539] | 4 nM
Cc1cnc(NC2CCC2)nc1-c1c[nH]c(C(=O)N[C@H](CO)c2ccccc2)c1 [erk000540] | 6 nM

More lines, now with the values ahead:

Ki | SMILES
1 nM | Cc1cnc(Nc2cccc(CO)c2C)nc1-c1c[nH]c(C(=O)N[C@H](CO)c2ccccc2)c1 [erk000541]
11 nM | Cc1cnc(NC2CC2)nc1-c1c[nH]c(C(=O)N[C@H](CO)c2cccc(F)c2)c1 [erk000542]
2000 nM | Nc1nccc(-c2c[nH]c(C(=O)N(CCO)Cc3ccccc3)c2)n1 [erk000543]
65 nM | CCSc1ncc(C)c(-c2c[nH]c(C(=O)N[C@H](CO)c3ccccc3)c2)n1 [erk000544]
18 nM | CCC[C@H](C)Nc1ncc(C)c(-c2c[nH]c(C(=O)N[C@H](CO)c3ccccc3)c2)n1 [erk000546]
6 nM | CCC(CC)Nc1ncc(C)c(-c2c[nH]c(C(=O)N[C@H](CO)c3ccccc3)c2)n1 [erk000547]
24 nM | COC[C@H](C)Nc1ncc(C)c(-c2c[nH]c(C(=O)N[C@H](CO)c3ccccc3)c2)n1 [erk000548]
27 nM | CC[C@@H](COC)Nc1ncc(C)c(-c2c[nH]c(C(=O)N[C@H](CO)c3ccccc3)c2)n1 [erk000549]
20 nM | CCC[C@@H](CO)Nc1ncc(C)c(-c2c[nH]c(C(=O)N[C@H](CO)c3ccccc3)c2)n1 [erk000551]
5 nM | CSCC[C@@H](CO)Nc1ncc(C)c(-c2c[nH]c(C(=O)N[C@H](CO)c3ccccc3)c2)n1 [erk000552]
6 nM | Cc1cnc(NC2CCC(C)CC2)nc1-c1c[nH]c(C(=O)N[C@H](CO)c2ccccc2)c1 (stereo not given in full) [erk000553]
3 nM | Cc1cnc(Nc2cccc3c2CCC3)nc1-c1c[nH]c(C(=O)N[C@H](CO)c2ccccc2)c1 [erk000556]
4 nM | CC[C@@H](COC)Nc1ncc(C)c(-c2c[nH]c(C(=O)N[C@H](CO)c3cccc(Cl)c3)c2)n1 [erk000557]
2 nM | Cc1cnc(NN2CCOCC2)nc1-c1c[nH]c(C(=O)N[C@H](CO)c2cccc(Cl)c2)c1 [erk000558]
3 nM | Cc1cnc(Nc2cc(Cl)cc(Cl)c2)nc1-c1c[nH]c(C(=O)N[C@H](CO)c2ccccc2)c1 [erk000559]
58 nM | CC(=O)NCCNc1ncc(C)c(-c2c[nH]c(C(=O)N[C@H](CO)c3ccccc3)c2)n1 [erk000560]
4 nM | Cc1cnc(Nc2c(F)cccc2F)nc1-c1c[nH]c(C(=O)N[C@H](CO)c2ccccc2)c1 [erk000561]
27 nM | Cc1cnc(Nc2cccc(Br)c2C)nc1-c1c[nH]c(C(=O)N[C@H](CO)c2ccccc2)c1 [erk000562]
3 nM | Cc1ccc(Nc2ncc(C)c(-c3c[nH]c(C(=O)N[C@H](CO)c4ccccc4)c3)n2)cc1Br [erk000563]
151 nM | Cc1cnc(Nc2c(Cl)cccc2Cl)nc1-c1c[nH]c(C(=O)N[C@H](CO)c2ccccc2)c1 [erk000564]
3 nM | Cc1cnc(Nc2cccc([N+](=O)[O-])c2)nc1-c1c[nH]c(C(=O)N[C@H](CO)c2ccccc2)c1 [erk000565]
3 nM | Cc1cc(C)cc(Nc2ncc(C)c(-c3c[nH]c(C(=O)N[C@H](CO)c4ccccc4)c3)n2)c1 [erk000566]
224 nM | Cc1cnc(NCCN2CCCC2)nc1-c1c[nH]c(C(=O)N[C@H](CO)c2ccccc2)c1 [erk000568]
9 nM | Cc1cnc(Nn2cccc2)nc1-c1c[nH]c(C(=O)N[C@H](CO)c2ccccc2)c1 [erk000573]
